Results taken from US20240090498A1, “ANTIMICROBIAL COMPOSITIONS” (TAKASAGO INTERNATIONAL CORPORATION, priority 2010, published 2024).

How the values were obtained:
Type in all cases: cell-based
[1] = system: Enterococcus hirae ATCC 10541; test: Vapor phase activity against bacteria (Example 2, growth grading versus control); conditions: E.h 10541; 7.1 or 9.3 mg/L as defined per composition; sealed 7 L box; further: key: −: No Activity (growth); +: Slight Activity (some growth, but much less than control); ++: Medium Activity (pinprick growth); +++: High Activity (no growth)
Procedure: (§1) Seeded brain heart infusion (BHI) agar plates of Escherichia coli ATCC 10536, Salmonella enterica ATCC13311, Pseudomonas aeruginosa ATCC 15422, Staphylococcus aureus ATCC 6538, Enterococcus faecalis ATCC 29212, and Enterococcus hirae ATCC 10541 were placed in sealed 7 L acrylic boxes and exposed to vapors of the compositions shown below. A control was established in which the agar plates was not treated with vapors. • Composition A: 9.3 mg/L of trans-2-hexenal • Composition B: 9.3 mg/L of trans-2-heptenal • Composition C: 9.3 mg/L of 2, 4-heptadienal • Composition D: 7.1 mg/L of trans-2-hexenal • Composition E: 7.1 mg/L of 2,4-heptadienal • Composition F: 7.1 mg/L of 2,4-heptadienal+citronellol (1:1) • Composition G: 9.3 mg/L of citronellal+citral DMA (1:1) • Composition H: 9.3 mg/L of benzaldehyde+citral DMA (1:1) • Composition I: 9.3 mg/L of furfural+citronellol (1:1) • Composition J: 7.1 mg/L of citral+citronellal (1:1) • Composition K: 7.1 mg/L of trans-2-hexenal+citronellol (1:1)

[2] = system: Pseudomonas aeruginosa ATCC 15422; test: as above; conditions: P.a. 15442; 7.1 or 9.3 mg/L as defined per composition; sealed 7 L box
Procedure: as §1

[3] = system: Enterococcus faecalis ATCC 29212; test: as above; parameters: key to the marks not given beside the values; conditions: E.f. 29212; 7.1 or 9.3 mg/L as defined per composition; sealed 7 L box
Procedure: as §1

[4] = system: Escherichia coli ATCC 10536; test: as above; parameters: key to the marks not given beside the values; conditions: E.c. 10536; 7.1 or 9.3 mg/L as defined per composition; sealed 7 L box
Procedure: as §1

[5] = system: Salmonella enterica ATCC13311; test: as above; parameters: key to the marks not given beside the values; conditions: S.e. 13311; 7.1 or 9.3 mg/L as defined per composition; sealed 7 L box
Procedure: as §1

[6] = system: Staphylococcus aureus ATCC 6538; test: as above; parameters: key to the marks not given beside the values; conditions: S.a. 6538; 7.1 or 9.3 mg/L as defined per composition; sealed 7 L box
Procedure: as §1

[7] = system: Enterococcus faecalis ATCC 29212; test: Vapor phase MIC / combined FIC on seeded BHI agar plates in sealed 7 L box; conditions: ATCC29212, 72 h, E. faecalis, no growth after 3 days at room temperature, read-out: MIC alone (single material, vapor phase)
Source text: (§2) Seeded brain heart infusion (BHI) agar plates of Escherichia coli ATCC 10536, Salmonella enterica ATCC13311, Pseudomonas aeruginosa ATCC 15422, Staphylococcus aureus ATCC 6538, Enterococcus faecalis ATCC 29212, and Enterococcus hirae ATCC 10541 were placed in sealed 7 L acrylic boxes and exposed to vapors of trans-2-alkenals (C6 to C11 carbon chain length) and mustard essential oil (MEO) binary combinations.
(§3) The trans-2-alkenals and MEO were weighed neat into a glass jar which was positioned in the box between the seeded agar plates. The concentration of the single materials and binary combinations introduce in the 7 L box were expressed as weight per unit volume of the box (mg/L). Several concentrations ranging from 0.5 mg/L to 43 mg/L of the single materials and combinations were tested for each organism. The vapor phase minimum inhibition concentration (MIC) with “no growth” after 3 days of incubation at room temperature. Fractional Inhibition Concentrations (FIC) was determined to evaluate the antibacterial effect of trans-2-alkenals and MEO combinations in the vapor phase based on the following formula:
(§4) Combined FIC=(MIC of trans-2-alkenalcombination/MIC of trans-2-alkenalalone)+(MIC of MEOcombination/MIC of MEOalone)
(§5) Combined FIC values for trans-2-alkenals and MEO combinations are shown below in Table 1. Combinations with combined FIC equal or less than 0.5 are considered to have a strong synergistic effect.

[8] = system: Enterococcus hirae ATCC 10541; test: as above; conditions: ATCC10541, 72 h, E. hirae, no growth after 3 days at room temperature, read-out: MIC alone (single material, vapor phase)
Source text: as §2, §3, §4, §5

[9] = system: Escherichia coli ATCC 10536; test: as above; conditions: ATCC10536, 72 h, E. coli, no growth after 3 days at room temperature, read-out: MIC alone (single material, vapor phase)
Source text: as §2, §3, §4, §5

[10] = system: Pseudomonas aeruginosa ATCC 15422; test: as above; conditions: ATCC15422, 72 h, P. aeruginosa, no growth after 3 days at room temperature, read-out: MIC alone (single material, vapor phase)
Source text: as §2, §3, §4, §5

[11] = system: Salmonella enterica ATCC13311; test: as above; conditions: ATCC13311, 72 h, S. enterica, no growth after 3 days at room temperature, read-out: MIC alone (single material, vapor phase)
Source text: as §2, §3, §4, §5

[12] = system: Staphylococcus aureus ATCC 6538; test: as above; conditions: ATCC6538, 72 h, S. aureus, no growth after 3 days at room temperature, read-out: MIC alone (single material, vapor phase)
Source text: as §2, §3, §4, §5

E.c. 10536 = test: MIC in solution; conditions: Escherichia coli
Procedure: (§6) MIC values were also determined for trans-2 octenal, octanal formulations, and MEO in solution and in the vapor phase.

E.f. 29212 = test: MIC in solution; conditions: Enterococcus faecalis
Procedure: as §6

E.h. 10541 = test: MIC in solution; conditions: Enterococcus hirae
Procedure: as §6

P.a. 15442 = test: MIC in solution; conditions: Pseudomonas aeruginosa
Procedure: as §6

S.a. 6538 = test: MIC in solution; conditions: Staphylococcus aureus
Procedure: as §6

S.e. 13311 = test: MIC in solution; conditions: Salmonella enterica
Procedure: as §6
Wherever Vapor phase activity against bacteria is given: key: −: No Activity (growth); +: Slight Activity (some growth, but much less than control); ++: Medium Activity (pinprick growth); +++: High Activity (no growth).

SMILES	Vapor Phase Activity Against Bacteria [1]	Vapor Phase Activity Against Bacteria [2]	Vapor Phase Activity Against Bacteria [3]	Vapor Phase Activity Against Bacteria [4]	Vapor Phase Activity Against Bacteria [5]	Vapor Phase Activity Against Bacteria [6]	MIC [7] [µg/mL]	MIC [8] [µg/mL]	MIC [10] [µg/mL]	further results
CCC/C=C/C=O [Composition A, trans-2-hexenal]	+	+++	+++	+++	+++	+++				
CCCC/C=C/C=O [Composition B, trans-2-heptenal]	+++	+	+++	+++	+++	+++				
CC/C=C/C=C/C=O [Composition C, 2,4-heptadienal]	+	+++	+++	+++	+++	+++				
CC/C=C/C=C/C=O [Composition E, 2,4-heptadienal]	+	++	++	+++	+++	+++				
CCCCCCCC=O [octanal]							42.4	42.4	84.8	MIC [9]: 21.1 µg/mL; MIC [11]: 42.4 µg/mL; MIC [12]: 7.8 µg/mL; MIC (E.c. 10536): > 125 µg/mL; MIC (E.f. 29212): > 125 µg/mL; MIC (E.h. 10541): > 125 µg/mL; MIC (P.a. 15442): > 125 µg/mL; MIC (S.a. 6538): > 125 µg/mL; MIC (S.e. 13311): > 125 µg/mL
CCCCCCC/C=C/C=O [trans-2-decenal]							6.4	6.4	43	
CCCC/C=C/C=O [trans-2-heptenal]							6.4	12.8	25.6	
CCC/C=C/C=O [trans-2-hexenal]							6.4	12.8	12.8	
CCCCCC/C=C/C=O [trans-2-nonenal]							6.4	6.4	43	
CCCCC/C=C/C=O [trans-2-octenal]							43	25.6	43	MIC [9]: 43 µg/mL; MIC [11]: 43 µg/mL; MIC [12]: 3.6 µg/mL; MIC (E.c. 10536): > 125 µg/mL; MIC (E.f. 29212): > 125 µg/mL; MIC (E.h. 10541): > 125 µg/mL; MIC (P.a. 15442): > 125 µg/mL; MIC (S.a. 6538): > 125 µg/mL; MIC (S.e. 13311): > 125 µg/mL
CCCCCCCC/C=C/C=O [trans-2-undecenal]							12.8	12.8	43	
